According to paper PMC11947101, “A phase Ia study of the MEK1/2 inhibitor PD-0325901 with the c-MET inhibitor crizotinib in patients with advanced solid cancers” (BJC Reports, 2025):

How the values were obtained:
[1] = Plasma pharmacokinetics (HPLC-MS/MS) of crizotinib, PD-0325901 and PD-0315209 in patients; type: in vivo, human; conditions: for Decrease in pre-dose concentrations on Days 21 compared to Day -1: Cycle 1 and 2, PD-0325901 8 mg B.D dose only; for Tmax: plasma, po, combination treatment, 4 dose levels, read-out: Time of peak plasma concentrations after oral dosing
Experimental: PK trough samples (pre-dose and 2-h post dose) were obtained on day 21 of cycles 2, 4, 6, 8, 10 and 12. Plasma concentrations were determined using a validated high-performance liquid chromatography mass spectrometry (HPLC-MS/MS) assay following solid-phase extraction of the plasma sample.

[2] = test system: patients with advanced solid tumours; conditions: in vivo
From the text: (§1) Patients could remain on combination treatment until disease progression or predefined unacceptable toxicity. At each dose level and before escalation to the next level, a safety study board comprising representatives from the study sponsor and collaborating investigators reviewed individual patient safety and DLTs. DLTs were defined as an almost certainly or probable drug-related adverse events to either drug (Supplementary Table S1), during the first cycle of treatment.
(§2) Safety assessments comprised of physical examination including vital signs, weight, ECOG PS assessment, documentation of adverse events (AEs) and concomitant medication, with regular monitoring of haematology and biochemistry. Ophthalmic examinations (including visual acuity, pressure, perimetry, slit lamp examination, fundoscopy, and optical coherence tomography), ECG and Echocardiography/MUGA were performed at baseline and at pre-defined time-points during the trial. […] At this stage, patients were not required to have measurable disease. Anti-tumour activity was assessed by radiological investigations according to revised RECIST, version 1.1, at baseline (within 28 days before day 1 of cycle 1), then every 2 cycles and at the end of treatment.
(§3) Safety and efficacy data were summarised using descriptive statistics. Evaluable patients for toxicity were those patients that received at least one dose of one or both drugs. Evaluable patients for MTD or dose escalation were those patients who completed cycle 1 or withdrew early for experiencing a DLT. Response analyses (i.e., RECIST 1.1) were performed on an intention-to-treat basis, and any patient who received any dose of study treatment was evaluable for response. Progression-free-survival (PFS) was defined as the time between receiving the first dose of study medication (cycle 1, day -7) to disease progression or death from any cause. Overall survival (OS) was defined as the time between cycle 1, day -7 to death from any cause.

[3] = test system: patients with advanced malignancies; conditions: cited from earlier work
[4] = test system: pERK1/2 and pMEK1/2 levels in skin biopsies; assay: Pharmacodynamic markers in paired skin biopsies by Western blotting; type: in vivo, human; conditions: in particular at 8 mg B.D PD-0325901
Experimental: All patients consented to a fresh frozen punch skin biopsy during screening and on cycle 1 day 15 (±7 days). PD markers of MEK1/2 inhibition (pMEK1/2 and pERK1/2 levels) in skin biopsies were assessed by Western blotting, previously described [18, 30]. […] Western blot images were developed using the G:BOX Chemi XX6 gel doc system (Syngene, Cambridge, UK). Densitometry on Western blot images was performed using ImageJ software.

[5] = test system: patients with advanced solid tumours; assay: Phase Ia dose-escalation: safety, DLT and MTD of PD-0325901 with crizotinib
From the text: as §1, §2, §3

pERK1/2 = test system: pERK1/2; parameters: method as in PMID 20215549; conditions: doses ≥2 mg PD-0325901 B.D; cited from earlier work
cMET = conditions: cited from earlier work

| SMILES | Decrease in pre-dose concentrations on Days 21 compared to Day -1 [1] | Plasma concentrations relative to those required to inhibit MEK1/2 activity ([1]; all dose levels) | Tmax ([1]; human) [h] | Serious adverse events thought to be drug-related [2] | Maximum tolerated dose (MTD), single agent ([3]; continuously, subsequently revised due to late retinal vein occlusion) | Doses resulting in intolerable toxicity, single agent ([3]; irrespective of the schedule) | AUC at day 21 compared to day 1 (first dose), single agent ([3]; multiple B.D dosing) | pMEK1/2 levels in skin biopsies, post- vs pre-treatment [4] | Maximum tolerable dose (MTD) of PD-0325901 in combination with crizotinib ([5]; days 1–21 of 28-day cycle, with crizotinib 200 mg B.D) [mg B.D] | Suppression of pERK1/2 in melanoma patient samples (pERK1/2) [%] | Pre-clinically predicted effective concentration to inhibit c-MET (cMET) [ng/mL] | Steady state on multiple dosing ([1]; Cycle 1 Day 21 vs Cycle 1 Day 28) | Median trough plasma concentrations ([1]; all cohorts (data not shown)) [ng/mL] | Increase in crizotinib Cmax, Cmin and AUC0-10h with B.D dosing (cohorts 2-4) compared with cohort 1 (O.D) ([1]; days 21 and 28, p < 0.05) | Effect of PD-0325901 dose escalation (cohort 2 to cohort 4) on PK parameters of crizotinib ([1]; human, in vivo) | Number of drug-related adverse events determined to be related to the named drug ([5]; all cohorts, combination treatment) | Patients requiring a dose reduction of the named drug due to DR-AEs ([5]; combination treatment, all cohorts) | Maximum tolerable dose (MTD) of crizotinib in combination with PD-0325901 ([5]; continuously (days 1–28), with PD-0325901 8 mg B.D) [mg B.D] |
| --- | --- | --- | --- | --- | --- | --- | --- | --- | --- | --- | --- | --- | --- | --- | --- | --- | --- | --- |
| O=C(NOC[C@H](O)CO)c1ccc(F)c(F)c1Nc1ccc(I)cc1F [PD-0325901] | 1.8–2.2 fold | reached levels consistent with those required to inhibit MEK1/2 activity at all dose levels | 1.02 to 2.27 | one | 15 mg twice daily (B.D) | > 15 mg twice a day (B.D) | slightly higher | significant accumulation | 8 | ≥ 60 | – | – | – | – | – | – | – | – |
| C[C@@H](Oc1cc(-c2cnn(C3CCNCC3)c2)cnc1N)c1c(Cl)ccc(F)c1Cl [crizotinib] | – | – | 2.76 to 5.21 | – | – | – | – | – | – | – | 62 | reached steady state by day 21 | > 62 | 1.6–2.6 fold | did not appear to affect | 124 | No patients | 200 |
| O=C(O)c1ccc(F)c(F)c1Nc1ccc(I)cc1F [PD-0315209] | 1.8–2.2 fold | – | – | – | – | – | – | – | – | – | – | – | – | – | – | – | – | – |
